In patent publication US10787424B2, “Oxopiperazine helix mimetics for control of Hypoxia-Inducible gene expression” (NEW YORK UNIVERSITY, priority 2014, dated 2020):
Where two headings read alike, the source gives them in different places. Blank lines part the entries; values can stand above or below the compound they belong to.

Key:
[1] = molecular target: T1, human p300 CH1 domain (p300-CH1) (Homo sapiens, UniProt Q09472); experiment: Tryptophan fluorescence binding assay for p300-CH1
T1 construct: human p300 CH1 domain (amino acid residues 323-423); GST (N, cleaved yes); made in house; host or cells: E. coli BL21(DE3)
Text: The DNA sequence of the human p300 CH1 domain (amino acid residues 323-423) was subcloned into a pUC57 plasmid by Genscript, Inc. After transformation of JM109 bacteria (Promega) with the plasmid, it was amplified and purified. Then the gene of interest was subcloned between BamHI and EcoRI restriction sites of pGEX-4T-2 expression vector (Amersham).
The pGEX-4T-2-p300 fusion vector was transformed into BL21(DE3) competent E.coli (Novagen) in M9 minimal media with ^15NH4Cl as the primary nitrogen source. Protein production was induced with 1 mM IPTG at OD600 of 1 for 16 hours at 15° C. Production of the desired p300-CH1-GST fusion product was verified by SDS-PAGE. Bacteria were harvested and resuspended in the lysis buffer with 20 mM Phosphate buffer (Research Products International, Corp.), 100 μM DTT (Fisher), 100 μM ZnSO4 (Sigma), 0.5% TritonX 100 (Sigma), […] Pepstatin A (Research Products International, Corp.), […] Leupeptin A (Research Products International, Corp.), 500 μM PMSF (Sigma), and 0.5% glycerol at pH 8.0. Pellets were lysed by sonication and centrifuged at 4° C. and 20,000 rpm for 20 minutes. Fusion protein was collected from the bacterial supernatant and purified by affinity chromatography using glutathione Sepharose 4B beads (Amersham) prepared according to the manufacturer's directions. GST-tag was cleaved by thrombin and protein was eluted from resin. Collected fractions were assayed by SDS-PAGE gel; pooled fractions were treated with protease inhibitor cocktail (Sigma) and against a buffer containing 10 mM Tris, 50 mM NaCl, 2 mM DTT (Fisher), and 3 equivalents ZnSO4 at pH 8.0 to ensure proper folding (vide supra).
Relative affinities of OHMs for p300-CH1 were determined using a tryptophan fluorescence binding assay. Spectra were recorded on a QuantaMaster 40 spectrofluorometer (Photon Technology International) in a 10 mm quartz fluorometer cell at 25° C. with 4 nm excitation and 4 nm emission slit widths from 200 to 400 nm at intervals of 1 nm/s. Samples were excited at 295 nm and fluorescence emission was measured from 200-400 nm and recorded at 335 nm. OHM stock solutions were prepared in DMSO. Aliquots containing 1 μL DMSO stocks were added to 400 μL of 1 μM p300-CH1 in 50 mM Tris and 100 μM NaCl (pH 8.0). After each addition, the sample was allowed to equilibrate for 5 minutes before UV analysis. Background absorbance and sample dilution effects were corrected by titrating DMSO into p300-CH1 in an analogous manner. Final fluorescence is reported as the absolute value of [(F1-F0)/F1]*100, where F1 is the final fluorescence upon titration, and F0 is the fluorescence of the blank DMSO titration. EC50 values for each peptide were determined by fitting the experimental data to a sigmoidal dose-response nonlinear regression model in GraphPad Prism 5.0, and the dissociation constants, KD, were obtained from equation (2). KD=(RT×(1−FSB)+LST×FSB^2)/FSB−LST (2)
where: • RT=Total concentration of p300-CH1 • LST=Total concentration of fluorescent peptide • FSB=Fraction of bound fluorescent peptide Results and Discussion of Examples 1-8

HIF signaling = conditions: cell culture, at micromolar levels; earlier study; cited from earlier work
[2] = tested on: over 28,000 transcripts (genome-wide off-target regulation); conditions: microarray gene expression profiling; earlier study; cited from earlier work
[3] = tested on: triple-negative breast cancer cell line MDA-MB-231 xenograft; conditions: MDA-MB-231 mouse xenograft; earlier study; cited from earlier work
p300-CH1 domain = molecular target: T2, p300-CH1 domain (Homo sapiens, UniProt Q09472); conditions: 15N-labeled CH1; earlier study; cited from earlier work
T2 construct: human p300 CH1 domain (amino acid residues 323-423); GST (N, cleaved yes); made in house; host or cells: E. coli BL21(DE3)

[4] = binding affinity for p300-CH1, intrinsic tryptophan fluorescence assay (Table 8), read-out: Kd

T1 sequence (Q09472 323-423): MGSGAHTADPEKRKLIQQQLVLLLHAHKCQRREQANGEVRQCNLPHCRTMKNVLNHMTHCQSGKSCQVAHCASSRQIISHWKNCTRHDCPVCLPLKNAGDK
T2 sequence (Q09472 323-423): as above

- Kd [1, 4]: 530 ± 140 nM
Structure (SMILES): CC(C)C[C@@H]1NCCN([C@@H](CC(C)C)C(=O)N2CCN([C@@H](CCC(N)=O)C(N)=O)C(=O)[C@@H]2C)C1=O [OHM 21, LLAQ-NH2]
- downregulation of HIF signaling (HIF signaling): efficiently downregulated HIF signaling
- specificity on genome-wide scale [2]: remarkably specific
- effect on tumor levels [3]: reduced tumor levels
- HSQC resonance shifts on addition of compound (p300-CH1 domain): consistent shifts in resonances of residues corresponding to the HIF1α816-824 binding pocket

- Kd [1, 4]: > 10000 nM
- Kd ([1]; p300-CH1, text value, read-out: Kd for p300-CH1): > 30000 nM
Structure (SMILES): CC(C)C[C@@H]1NCCN([C@@H](C)C(=O)N2CCN([C@@H](CCC(N)=O)C(N)=O)C(=O)[C@@H]2C)C1=O [OHM 22, LAAQ]

Structure (SMILES): CCCC[C@@H](C(=O)N1CCN([C@@H](CCC(N)=O)C(N)=O)C(=O)[C@@H]1C)N1CCN[C@@H](CC(C)C)C1=O [OHM 23, L(Nle)AQ]
- Kd [1, 4]: 30 ± 10 nM
- Kd ([1]; cross-specificity, p300-CH1 (Table 9), read-out: p300 Kd): 30 ± 10 nM
- enhancement in binding affinity over parent OHM 21 ([1]; p300, relative to OHM 21): 13 fold

Structure (SMILES): CC(C)CC[C@@H]1NCCN([C@@H](CCC(C)C)C(=O)N2CCN([C@@H](CCC(N)=O)C(N)=O)C(=O)[C@@H]2C)C1=O [OHM 25, (Hle)(Hle)AQ]
- Kd [1, 4]: 160 ± 60 nM

- Kd [1, 4]: 620 ± 270 nM
Structure (SMILES): CC(C)C[C@@H]1NCCN([C@@H](CC(C)C)C(=O)N2CCN([C@@H](C)C(N)=O)C(=O)[C@@H]2C)C1=O [OHM 26]

- Kd [1, 4]: > 10000 nM
Structure (SMILES): C[C@@H]1NCCN([C@@H](C)C(=O)N2CCN([C@@H](C)C(N)=O)C(=O)[C@@H]2C)C1=O [OHM 27]
